Test results reported in patent US20230257385A1, “SALT AND SOLID FORMS OF TABERNANTHALOG” (priority 2021, published 2023).

Test: Suspension equilibration of the monofumarate salt at 20° C. and 40° C. (Experiment References 6, 7, 8)
Assay type: physicochemical
Settings: for Observations (t = 0 @ 20° C.) / Observations (t = 1 d @ 20° C.) / Observations t = 7 d @ 20° C.: suspension equilibration at 20° C.; for Observations (t = 0 @ 40° C.) / Observations (t = 1 d @ 40° C.) / Observations t = 7 d @ 40° C.: suspension equilibration at 40° C.
Method: Separate portions of the tabernanthalog monofumarate salt (Sample Reference 1, Pattern #1, ca 50 mg, 1.0 wt.) were charged to separate vessels. The appropriate solvents (e.g. 250 μl, 5.0 vol), were charged to the vessels and the mixtures were stirred for several days at their relevant temperatures e.g. 20 and 40° C. After this time the products were cooled, isolated by centrifugation, analyzed as wet pellet (suffix-1) by XRPD and dried under reduced pressure at 40° C. (suffix-2) and re-analyzed by XRPD and companion analyses for evidence of alternative crystalline forms.
The tabernanthalog monofumarate salt (Sample Reference 1, Pattern #1) was subjected to this technique at ambient temperature (20° C., Table 35) and at elevated temperature (40° C., Table 36), in a diverse range of solvents. The primary aim is to identify a stable, anhydrous monotropic form that is suitable for future development.
The tabernanthalog monofumarate salt (Sample Reference 1, Pattern #1, 1.0 g, 1 wt) was suspended in water (5 ml, 5 vol) at 20° C. for 10 days (the suspension was sub-sampled to monitor the conversion to Pattern #6a by XRPD). The suspension was filtered through a sintered funnel and the filter cake was dried under nitrogen flow for ca. 24 h. Sample 8-A4 (Experiment Reference 8-Sample Reference A4) was collected as a brown solid (560.6 mg, 56% yield uncorr.). Yield was not corrected for impurities, solvents, etc.

Q: What does the source list for `COc1ccc2c3c([nH]c2c1)CCN(C)CC3.O=C(O)/C=C/C(=O)O` [Tabernanthalog•Monofumarate (CAT8931)]?
A: Observations (t = 0 @ 20° C.) (6-A, Acetone): Suspension; Observations (t = 1 d @ 20° C.) (6-A, Acetone): Suspension; Observations t = 7 d @ 20° C. (6-A, Acetone): Suspension; Observations (t = 0 @ 20° C.) (6-B, Acetonitrile): Suspension; Observations (t = 1 d @ 20° C.) (6-B, Acetonitrile): Suspension; Observations t = 7 d @ 20° C. (6-B, Acetonitrile): Suspension; Observations (t = 0 @ 20° C.) (6-C, tert-Butylmethyl ether): Suspension; Observations (t = 1 d @ 20° C.) (6-C, tert-Butylmethyl ether): Suspension; Observations t = 7 d @ 20° C. (6-C, tert-Butylmethyl ether): Suspension; Observations (t = 0 @ 20° C.) (6-D, Chlorobenzene): Suspension; Observations (t = 1 d @ 20° C.) (6-D, Chlorobenzene): Suspension; Observations t = 7 d @ 20° C. (6-D, Chlorobenzene): Suspension; Observations (t = 0 @ 20° C.) (6-E, Dichloromethane): Suspension; Observations (t = 1 d @ 20° C.) (6-E, Dichloromethane): Suspension; Observations t = 7 d @ 20° C. (6-E, Dichloromethane): Suspension; Observations (t = 0 @ 20° C.) (6-F, Ethanol): Suspension; Observations (t = 1 d @ 20° C.) (6-F, Ethanol): Suspension; Observations t = 7 d @ 20° C. (6-F, Ethanol): Suspension; Observations (t = 0 @ 20° C.) (6-G, Ethyl acetate): Suspension; Observations (t = 1 d @ 20° C.) (6-G, Ethyl acetate): Suspension; Observations t = 7 d @ 20° C. (6-G, Ethyl acetate): Suspension; Observations (t = 0 @ 20° C.) (6-H, Ethyl formate): Suspension; Observations (t = 1 d @ 20° C.) (6-H, Ethyl formate): Suspension; Observations t = 7 d @ 20° C. (6-H, Ethyl formate): Suspension; Observations (t = 0 @ 20° C.) (6-I, Heptane): Suspension; Observations (t = 1 d @ 20° C.) (6-I, Heptane): Suspension; Observations t = 7 d @ 20° C. (6-I, Heptane): Suspension; Observations (t = 0 @ 20° C.) (6-J, Isopropyl acetate): Suspension; Observations (t = 1 d @ 20° C.) (6-J, Isopropyl acetate): Suspension; Observations t = 7 d @ 20° C. (6-J, Isopropyl acetate): Suspension; Observations (t = 0 @ 20° C.) (6-K, Methanol): Suspension; Observations (t = 1 d @ 20° C.) (6-K, Methanol): Suspension; Observations t = 7 d @ 20° C. (6-K, Methanol): Suspension; Observations (t = 0 @ 20° C.) (6-L, Methyl acetate): Suspension; Observations (t = 1 d @ 20° C.) (6-L, Methyl acetate): Suspension; Observations t = 7 d @ 20° C. (6-L, Methyl acetate): Suspension; Observations (t = 0 @ 20° C.) (6-M, Methylethyl ketone): Suspension; Observations (t = 1 d @ 20° C.) (6-M, Methylethyl ketone): Suspension; Observations t = 7 d @ 20° C. (6-M, Methylethyl ketone): Suspension; Observations (t = 0 @ 20° C.) (6-N, 2-Methyl THF): Suspension; Observations (t = 1 d @ 20° C.) (6-N, 2-Methyl THF): Suspension; Observations t = 7 d @ 20° C. (6-N, 2-Methyl THF): Suspension; Observations (t = 0 @ 20° C.) (6-O, Nitromethane): Suspension; Observations (t = 1 d @ 20° C.) (6-O, Nitromethane): Suspension; Observations t = 7 d @ 20° C. (6-O, Nitromethane): Suspension; Observations (t = 0 @ 20° C.) (6-P, 2-Propanol): Suspension; Observations (t = 1 d @ 20° C.) (6-P, 2-Propanol): Suspension; Observations t = 7 d @ 20° C. (6-P, 2-Propanol): Suspension; Observations (t = 0 @ 20° C.) (6-Q, Tetrahydrofuran): Suspension; Observations (t = 1 d @ 20° C.) (6-Q, Tetrahydrofuran): Suspension; Observations t = 7 d @ 20° C. (6-Q, Tetrahydrofuran): Suspension; Observations (t = 0 @ 20° C.) (6-R, Toluene): Suspension; Observations (t = 1 d @ 20° C.) (6-R, Toluene): Suspension; Observations t = 7 d @ 20° C. (6-R, Toluene): Suspension; Observations (t = 0 @ 20° C.) (6-S, Water): Suspension; Observations (t = 1 d @ 20° C.) (6-S, Water): Suspension; Observations t = 7 d @ 20° C. (6-S, Water): Suspension

Q: What does the source list for `COc1ccc2c3c([nH]c2c1)CCN(C)CC3.O=C(O)/C=C/C(=O)O` [Tabernanthalog•fumarate (CAT8931)]?
A: Observations (t = 0 @ 40° C.) (7-A, Acetone): Suspension; Observations (t = 1 d @ 40° C.) (7-A, Acetone): Suspension; Observations t = 7 d @ 40° C. (7-A, Acetone): Suspension; Observations (t = 0 @ 40° C.) (7-B, Acetonitrile): Suspension; Observations (t = 1 d @ 40° C.) (7-B, Acetonitrile): Suspension; Observations t = 7 d @ 40° C. (7-B, Acetonitrile): Suspension; Observations (t = 0 @ 40° C.) (7-C, tert-Butylmethyl ether): Suspension; Observations t = 7 d @ 40° C. (7-C, tert-Butylmethyl ether): Suspension; Observations (t = 0 @ 40° C.) (7-D, Chlorobenzene): Suspension; Observations (t = 1 d @ 40° C.) (7-D, Chlorobenzene): Suspension; Observations t = 7 d @ 40° C. (7-D, Chlorobenzene): Suspension; Observations (t = 0 @ 40° C.) (7-E, Dichloromethane): Suspension; Observations (t = 1 d @ 40° C.) (7-E, Dichloromethane): Suspension; Observations t = 7 d @ 40° C. (7-E, Dichloromethane): Suspension; Observations (t = 0 @ 40° C.) (7-F, Ethanol): Suspension; Observations (t = 1 d @ 40° C.) (7-F, Ethanol): Suspension; Observations t = 7 d @ 40° C. (7-F, Ethanol): Suspension; Observations (t = 0 @ 40° C.) (7-G, Ethyl acetate): Suspension; Observations (t = 1 d @ 40° C.) (7-G, Ethyl acetate): Suspension; Observations t = 7 d @ 40° C. (7-G, Ethyl acetate): Suspension; Observations (t = 0 @ 40° C.) (7-H, Ethyl formate): Suspension; Observations (t = 1 d @ 40° C.) (7-H, Ethyl formate): Suspension; Observations t = 7 d @ 40° C. (7-H, Ethyl formate): Suspension; Observations (t = 0 @ 40° C.) (7-I, Heptane): Suspension; Observations (t = 1 d @ 40° C.) (7-I, Heptane): Suspension; Observations t = 7 d @ 40° C. (7-I, Heptane): Suspension; Observations (t = 0 @ 40° C.) (7-J, Isopropyl acetate): Suspension; Observations (t = 1 d @ 40° C.) (7-J, Isopropyl acetate): Suspension; Observations t = 7 d @ 40° C. (7-J, Isopropyl acetate): Suspension; Observations (t = 0 @ 40° C.) (7-K, Methanol): Suspension; Observations t = 7 d @ 40° C. (7-K, Methanol): Suspension; Observations (t = 0 @ 40° C.) (7-L, Methyl acetate): Suspension; Observations (t = 1 d @ 40° C.) (7-L, Methyl acetate): Suspension; Observations t = 7 d @ 40° C. (7-L, Methyl acetate): Suspension; Observations (t = 0 @ 40° C.) (7-M, Methylethyl ketone): Suspension; Observations (t = 1 d @ 40° C.) (7-M, Methylethyl ketone): Suspension; Observations t = 7 d @ 40° C. (7-M, Methylethyl ketone): Suspension; Observations (t = 0 @ 40° C.) (7-N, 2-Methyl THF): Suspension; Observations (t = 1 d @ 40° C.) (7-N, 2-Methyl THF): Suspension; Observations t = 7 d @ 40° C. (7-N, 2-Methyl THF): Suspension; Observations (t = 0 @ 40° C.) (7-O, Nitromethane): Suspension; Observations (t = 1 d @ 40° C.) (7-O, Nitromethane): Suspension; Observations t = 7 d @ 40° C. (7-O, Nitromethane): Suspension; Observations (t = 0 @ 40° C.) (7-P, 2-Propanol): Suspension; Observations (t = 1 d @ 40° C.) (7-P, 2-Propanol): Suspension; Observations t = 7 d @ 40° C. (7-P, 2-Propanol): Suspension; Observations (t = 0 @ 40° C.) (7-Q, Tetrahydrofuran): Suspension; Observations (t = 1 d @ 40° C.) (7-Q, Tetrahydrofuran): Sticky Solid; Observations t = 7 d @ 40° C. (7-Q, Tetrahydrofuran): Suspension; Observations (t = 0 @ 40° C.) (7-R, Toluene): Suspension; Observations (t = 1 d @ 40° C.) (7-R, Toluene): Suspension; Observations t = 7 d @ 40° C. (7-R, Toluene): Suspension; Observations (t = 0 @ 40° C.) (7-S, Water): Suspension; Observations t = 7 d @ 40° C. (7-S, Water): Suspension
